# Laboratory results from patent US11090364B2, “Conjugates of a pharmaceutical agent and a moiety capable of binding to a glucose sensing protein” (SANOFI, priority 2016, dated 2021).
# What was measured:
# erythrocytes = experiment: Erythrocyte dialysis assay (6-NBD-Glc, Rapid Equilibrium Dialysis); type: binding, rat; conditions: for Fluorescence intensity in buffer compartiment, 1:1 Dilution k^off / Fluorescence intensity in buffer compartiment, 1:1 Dilution k^on: 6-NBD-Glc 25 μM; for Fluorescence intensity in buffer compartiment, 6-NBD-Glc [50 μM]: absence of glucose
# Excerpt: 3. Erythrocyte Dialysis Assay
# Here 6-NBD-Glc or alternatively 2-NBD-Glc was used in dialysis based competition experiments.
# Freshly isolated heparinized rat blood samples were immideately diluted (1:5) in PBS buffer to generate a stable stock solution. This stock solution was further diluted (1:1 or 1:3) for the following dialysis experiments in Rapid Equilibrium Dialysis (RED) devices (Thermo Scientific Pierce).
# The aforementioned stock solution was further diluted (1:1 or 1:3 respectively) and added to the dialysis compartiment of a RED device. In parallel stock solution was diluted (1:1) with buffer containing 6 NBD Glc (25 μM).
# Dialyses was started by addition of 6 NBD Glc (25 μM) in PBS Buffer (k^on) or pure PBS buffer (ko^off) respectively into the buffer compartiment. Aliquots (20 μl) were taken after defined time intervals from the buffer compartiment and fluorescence was measured in a UV plate reader (Thermovarioskan, Thermo).
# As a control, free diffusion of 6-NBD-Glc (25 μM) in PBS buffer vs pure buffer was measured.
# Glucose dependency was determined following the protocol described above, comparing the following solutions: 6 NBD-Glc (100 μM), 6 NBD-Glucose (100 μM)+Glucose 20 mM. Data are shown in the next table
# Example 102 was investigated in a competition experiment following the same protocol using a 6-NBD-Glc solution (100 μM) in comparison to 6 NBD-Glucose (100 μM)+Example 102 (50 μM).
# HepG2 cells = experiment: HepG2 assay: 14C 2-deoxy-D-glucose transport into HepG2 cells; type: cell-based; conditions: Homo sapiens, test compound 100 μM
# Experimental: For measurement of ^14C 2-deoxy-D-glucose transport into HepG2 cells, cells were seeded in collagen treated 96-well plates (Cytostar-T Plates Perkin Elmer, 40.000 cells/200 μ/well) in medium complete (MEM W/GLUT-I, EARLES (Gibco #41090) /NEAA/PS/10% FCS) and grown for 48 hours. After starvation for 2 hours with MEM W/GLUT-I, EARLES (Gibco #41090)/NEAA/no serum 100 μl/well and washing twice with 200 μL KRB buffer, cells were stimulated in a dose dependent manner by adding 20 μL of test compound dilution 0-750 μM (7.5 times higher concentration than final) or 20 μL of 188 μM Cytochalasin B solution as negative control, to 80 μL KRB buffer and incubated for 30 minutes. After compound stimulation, the transport of ^14C 2-deoxy-D-glucose was started by adding of 50 μL ^14C 2-deoxy-D-glucose solution (250 μM 2-deoxy-D-glucose cold and 15 μM ^14C 2-deoxy-D-glucose 0.13 μCi/well) for 20 minutes. Transport was stopped by adding 50 μL/well 40 μM Cytochalasin B solution. Plates were measured in a 96-well Wallac Microbeta device. The cpm (counts per minute) values were used to determine the % inhibition values for the test compounds within each experiment, which then are averaged over the number of experiments performed.
smiles,measurement,setting,value
"O=[N+]([O-])c1ccc(NC[C@H]2OC(O)[C@H](O)[C@@H](O)[C@@H]2O)c2nonc12 (stereo partly shown) [Example 6-NBD-Glc, 6-(N-(7-Nitrobenz-2-oxa-1,3-diazol-4-yl)amino)-6-Deoxyglucose]","Fluorescence intensity in buffer compartiment, 1:1 Dilution k^off",erythrocytes; 0 min,0 AU
same,"Fluorescence intensity in buffer compartiment, 1:1 Dilution k^on",erythrocytes; 0 min,55 AU
same,"Fluorescence intensity in buffer compartiment, NBD-Glc [50 μM] + Glc [10 mM]",erythrocytes; 0 min,0 AU
same,"Fluorescence intensity in buffer compartiment, 6-NBD-Glc [50 μM]",erythrocytes; 0 min,0 AU
same,"Fluorescence intensity in buffer compartiment, NBD-Glc [50 μM] + Glc [10 mM]",erythrocytes; 15 min,7.2 AU
same,"Fluorescence intensity in buffer compartiment, 6-NBD-Glc [50 μM]",erythrocytes; 15 min,7.5 AU
same,"Fluorescence intensity in buffer compartiment, 1:1 Dilution k^off",erythrocytes; 30 min,3.4 AU
same,"Fluorescence intensity in buffer compartiment, 1:1 Dilution k^on",erythrocytes; 30 min,50.6 AU
same,"Fluorescence intensity in buffer compartiment, NBD-Glc [50 μM] + Glc [10 mM]",erythrocytes; 30 min,11.9 AU
same,"Fluorescence intensity in buffer compartiment, 6-NBD-Glc [50 μM]",erythrocytes; 30 min,10.6 AU
same,"Fluorescence intensity in buffer compartiment, 1:1 Dilution k^off",erythrocytes; 60 min,6.5 AU
same,"Fluorescence intensity in buffer compartiment, 1:1 Dilution k^on",erythrocytes; 60 min,45.1 AU
same,"Fluorescence intensity in buffer compartiment, NBD-Glc [50 μM] + Glc [10 mM]",erythrocytes; 60 min,17 AU
same,"Fluorescence intensity in buffer compartiment, 6-NBD-Glc [50 μM]",erythrocytes; 60 min,11.1 AU
same,"Fluorescence intensity in buffer compartiment, 1:1 Dilution k^off",erythrocytes; 90 min,12 AU
same,"Fluorescence intensity in buffer compartiment, 1:1 Dilution k^on",erythrocytes; 90 min,33 AU
same,"Fluorescence intensity in buffer compartiment, NBD-Glc [50 μM] + Glc [10 mM]",erythrocytes; 90 min,18.5 AU
same,"Fluorescence intensity in buffer compartiment, 6-NBD-Glc [50 μM]",erythrocytes; 90 min,14.9 AU
same,"Fluorescence intensity in buffer compartiment, 1:1 Dilution k^off",erythrocytes; 120 min,16.1 AU
same,"Fluorescence intensity in buffer compartiment, 1:1 Dilution k^on",erythrocytes; 120 min,34 AU
same,"Fluorescence intensity in buffer compartiment, NBD-Glc [50 μM] + Glc [10 mM]",erythrocytes; 120 min,20.3 AU
same,"Fluorescence intensity in buffer compartiment, 6-NBD-Glc [50 μM]",erythrocytes; 120 min,15.8 AU
same,"Fluorescence intensity in buffer compartiment, NBD-Glc [50 μM] + Glc [10 mM]",erythrocytes; 180 min,22.5 AU
same,"Fluorescence intensity in buffer compartiment, 6-NBD-Glc [50 μM]",erythrocytes; 180 min,16 AU
same,Free concentration of 6-NBD-Glc in presence of Glc [10 mM],erythrocytes; Glc 10 mM versus absence of glucose,increased
"OC[C@H]1OC(O)[C@H](n2cc(-c3ccccc3)nn2)[C@@H](O)[C@@H]1O (stereo partly drawn) [Example 55, (3R,4R,5S,6R)-6-(Hydroxymethyl)-3-(4-phenyltriazol-1-yl)tetrahydropyran-2,4,5-triol]",inhibition at 100 µM,HepG2 cells,12.4%
"Cc1ccc(-c2cn([C@H]3C(O)O[C@H](CO)[C@@H](O)[C@@H]3O)nn2)cc1 (stereo partly drawn) [Example 56, (3R,4R,5S,6R)-6-(Hydroxymethyl)-3-[4-(p-tolyl)triazol-1-yl]tetrahydropyran-2,4,5-triol]",inhibition at 100 µM,HepG2 cells,21.1%
"OC[C@H]1OC(O)[C@H](n2cc(CCCc3ccccc3)nn2)[C@@H](O)[C@@H]1O (stereo partly drawn) [Example 57, (3R,4R,5S,6R)-6-(Hydroxymethyl)-3-[4-(3-phenylpropyl)triazol-1-yl]tetrahydropyran-2,4,5-triol]",inhibition at 100 µM,HepG2 cells,24.1%
"COC(=O)c1ccc(-c2cn([C@H]3C(O)O[C@H](CO)[C@@H](O)[C@@H]3O)nn2)cc1 (stereo partly drawn) [Example 58, Methyl 4-[1-[(3R,4R,5S,6R)-2,4,5-trihydroxy-6-(hydroxymethyl)tetrahydropyran-3-yl]triazol-4-yl]benzoate]",inhibition at 100 µM,HepG2 cells,20%
"CN(Cc1ccccc1)Cc1cn([C@H]2C(O)O[C@H](CO)[C@@H](O)[C@@H]2O)nn1 (stereo partly drawn) [Example 59, (3R,4R,5S,6R)-3-[4-[[Benzyl(methyl)amino]methyl]triazol-1-yl]-6-(hydroxymethyl)tetrahydropyran-2,4,5-triol]",inhibition at 100 µM,HepG2 cells,7.56%
"COc1ccc2cc(-c3cn([C@H]4C(O)O[C@H](CO)[C@@H](O)[C@@H]4O)nn3)ccc2c1 (stereo partly drawn) [Example 60, (3R,4R,5S,6R)-6-(Hydroxymethyl)-3-[4-(6-methoxy-2-naphthyl)triazol-1-yl]tetrahydropyran-2,4,5-triol]",inhibition at 100 µM,HepG2 cells,14.8%
"Cc1ccc(-c2nc(C)c(-c3cn([C@H]4C(O)O[C@H](CO)[C@@H](O)[C@@H]4O)nn3)c(Cl)n2)cc1 (stereo partly drawn) [Example 61, (3R,4R,5S,6R)-3-[4-[4-Chloro-6-methyl-2-(p-tolyl)pyrimidin-5-yl]triazol-1-yl]-6-(hydroxymethyl)tetrahydropyran-2,4,5-triol]",inhibition at 100 µM,HepG2 cells,9.42%
"O=[N+]([O-])c1ccc(NCc2cn([C@H]3C(O)O[C@H](CO)[C@@H](O)[C@@H]3O)nn2)c2nonc12 (stereo partly drawn) [Example 63, (3R,4R,5S,6R)-6-(Hydroxymethyl)-3-[4-[[(4-nitro-2,1,3-benzoxadiazol-7-yl)amino]methyl]triazol-1-yl]tetrahydropyran-2,4,5-triol]",inhibition at 100 µM,HepG2 cells,37.6%
"OC[C@H]1OC(O)[C@H](n2cc(CC3CCCCC3)nn2)[C@@H](O)[C@@H]1O (stereo partly drawn) [Example 64, (3R,4R,5S,6R)-3-[4-(Cyclohexylmethyl)triazol-1-yl]-6-(hydroxymethyl)tetrahydropyran-2,4,5-triol]",inhibition at 100 µM,HepG2 cells,8.86%
"CCCCCc1cn([C@H]2C(O)O[C@H](CO)[C@@H](O)[C@@H]2O)nn1 (stereo partly drawn) [Example 65, (3R,4R,5S,6R)-6-(Hydroxymethyl)-3-(4-pentyltriazol-1-yl)tetrahydropyran-2,4,5-triol]",inhibition at 100 µM,HepG2 cells,7.79%
"OC[C@H]1OC(O)[C@H](n2cc(CCCCl)nn2)[C@@H](O)[C@@H]1O (stereo partly drawn) [Example 66, (3R,4R,5S,6R)-3-[4-(3-Chloropropyl)triazol-1-yl]-6-(hydroxymethyl)tetrahydropyran-2,4,5-triol]",inhibition at 100 µM,HepG2 cells,5.12%
"O=[N+]([O-])c1ccc(CCCCCCCc2cn([C@H]3C(O)O[C@H](CO)[C@@H](O)[C@@H]3O)nn2)c2nonc12 (stereo partly drawn) [Example 67, (3R,4R,5S,6R)-6-(Hydroxymethyl)-3-[4-[7-(4-nitro-2,1,3-benzoxadiazol-7-yl)heptyl]triazol-1-yl]tetrahydropyran-2,4,5-triol]",inhibition at 100 µM,HepG2 cells,25.8%
"OC1O[C@H](Cn2cc(-c3ccccc3)nn2)[C@@H](O)[C@H](O)[C@H]1O (stereo partly drawn) [Example 69, (3R,4S,5S,6R)-6-[(4-Phenyltriazol-1-yl)methyl]tetrahydropyran-2,3,4,5-tetrol]",inhibition at 100 µM,HepG2 cells,6.14%
"O=[N+]([O-])c1ccc(NCc2cn(C[C@H]3OC(O)[C@H](O)[C@@H](O)[C@@H]3O)nn2)c2nonc12 (stereo partly drawn) [Example 75, (3R,4S,5S,6R)-6-[[4-[[(4-Nitro-2,1,3-benzoxadiazol-7-yl)amino]methyl]triazol-1-yl]methyl]tetrahydropyran-2,3,4,5-tetrol]",inhibition at 100 µM,HepG2 cells,31.2%
"O=[N+]([O-])c1ccc(NCc2cn([C@@H]3O[C@H](CO)[C@@H](O)[C@H](O)[C@H]3O)nn2)c2nonc12 [Example 88, (2R,3S,4S,5R,6R)-2-(Hydroxymethyl)-6-[4-[[(4-nitro-2,1,3-benzoxadiazol-7-yl)amino]methyl]triazol-1-yl]tetrahydropyran-3,4,5-triol]",inhibition at 100 µM,HepG2 cells,31.4%
"O=[N+]([O-])c1ccc(NCCCCCCc2cn([C@@H]3O[C@H](CO)[C@@H](O)[C@H](O)[C@H]3O)nn2)c2nonc12 [Example 92, (2R,3S,4S,5R,6R)-2-(Hydroxymethyl)-6-[4-[6-[(4-nitro-2,1,3-benzoxadiazol-7-yl)amino]hexyl]triazol-1-yl]tetrahydropyran-3,4,5-triol]",inhibition at 100 µM,HepG2 cells,23.1%
"OC1O[C@H](CN2CCN(c3ccc(Cl)cc3)CC2)[C@H](O)[C@H](O)[C@H]1O (stereo partly drawn) [Example 102, (3R,4S,5R,6R)-6-[[4-(4-Chlorophenyl)piperazin-1-yl]methyl]tetrahydropyran-2,3,4,5-tetrol]",Fluorescence intensity of 6-NBD-Glc in competition with Example 102 [25 μM],"erythrocytes; 0 min, competition with 6-NBD-Glc",0 AU
same,Fluorescence intensity of 6-NBD-Glc in competition with Example 102 [25 μM],"erythrocytes; 15 min, competition with 6-NBD-Glc",4.9 AU
same,Fluorescence intensity of 6-NBD-Glc in competition with Example 102 [25 μM],"erythrocytes; 30 min, competition with 6-NBD-Glc",11.1 AU
same,Fluorescence intensity of 6-NBD-Glc in competition with Example 102 [25 μM],"erythrocytes; 60 min, competition with 6-NBD-Glc",12.5 AU
same,Fluorescence intensity of 6-NBD-Glc in competition with Example 102 [25 μM],"erythrocytes; 90 min, competition with 6-NBD-Glc",19.3 AU
same,Fluorescence intensity of 6-NBD-Glc in competition with Example 102 [25 μM],"erythrocytes; 120 min, competition with 6-NBD-Glc",25.1 AU
same,Fluorescence intensity of 6-NBD-Glc in competition with Example 102 [25 μM],"erythrocytes; 180 min, competition with 6-NBD-Glc",32.1 AU
same,Slope of fluorescence intensity vs time in comparison to control,erythrocytes; competition with 6-NBD-Glc,clear increase in the slope
